Assay results published in patent publication US10111831B2, “Chewable vehicle for mouth absorption” (TECHNOLOGIES KHLOROS INC., priority 2011, dated 2018).

Assays:
[1] = Liberation of riboflavin from functional gel, passive vs artificial mastication; format: physicochemical; conditions: Khlôros functional gel, 0.9% riboflavin, 10 ml H2O/gel, after 60 seconds, detection at 445 nm
Experimental: • Material: • Khlôros functional gel (see examples I and II); • 0.9% Riboflavin; • Reactional media: 10 ml of H2O/gel; • Passive liberation of active ingredient (Riboflavin): no treatment on the gel; • Artificial mastication (active liberation): mimic the action of mastication →compression and soft shearing;
Detection of the liberation of riboflavin and conversion in mM by the spectroscopic evaluation at 445 nm.

[2] = Release of yohimbine from chewing gum masticated in water or artificial saliva; format: physicochemical; conditions: gum with Corynanthe yohimbe bark extract (8% yohimbine), artificially masticated 120 seconds in 10 ml, chromatography
Experimental: • Chewing gums are prepared following example xx, containing a bark extract of Corynanthe yohimbe (containing 8% of yohimbine); • Gums are artificially masticated for 120 seconds in 10 ml of water or artificial saliva; • The quantity of released yohimbine is analysed by chromatography.

liberation of riboflavin after artificial mastication compared to passive liberation [1] [times] | quantity of yohimbine released, masticated in saliva versus water [2] | SMILES
23 |  | Cc1cc2nc3c(=O)[nH]c(=O)nc-3n(C[C@H](O)[C@H](O)[C@H](O)CO)c2cc1C [riboflavin, Riboflavin]
 | more than 5 time | COC(=O)[C@@H]1[C@H]2C[C@H]3c4[nH]c5ccccc5c4CCN3C[C@@H]2CC[C@@H]1O [yohimbine]
